Read-outs that look alike come from different tables or passages of the source.
What was measured:
[1] = cited from earlier work
nematodes [2] = details: nematode, literature values of other drugs; cited from earlier work
HDF derived from human = experiment: Oxidative stress load (hydrogen peroxide) on aged cells, cell number by WST-8 (Test Example 4 B); type: cell-based; details: HDF from person, 75 μM ATP prodrug 24 hours, then 200 μM hydrogen peroxide 6 hours
Procedure: (§1) Human Dermal Fibroblasts (HDF) derived from human (Toyobo) were seeded at 5000 cells/well in DMEM low glucose, 10% FBS, and 1% penicillin/streptomycin, and three hours later, the ATP prodrug dissolved in DMSO was added at either 0 or 50 μM. (A) The sample was incubated for 24 hours. The amount of DNA was measured using picogreen, and converted to cell count from a calibration curve separately created. The ATP level was quantified using the ATP measurement kit (Dojin Chemical), and the ATP level per cell was calculated. (B) 75 μM of the ATP prodrug was added to the HDF derived from human, and the medium was replaced with serum-free medium comprising 200 μM of hydrogen peroxide after 24 hours, followed by incubating the mixture for 6 hours. After 6 hours, the cells were washed, and the cell numbers were compared using the WST-8 kit.

MCF7 cells = experiment: Effect of ATP analogs on intracellular ATP concentration in MCF7 cells (Test Example 2); type: cell-based, human; details: MCF7, 100 μM, one day and two days, normalized to DNA, compared with adenosine, AMP
Procedure: Adenosine, AMP, ATP, and the ATP prodrug were added to the culture medium of MCF7 cells (5000 cells/well) at a concentration of 100 μM, and, one day and two days later, ATP was measured, followed by normalizing the results to the DNA amounts.

nematodes [3] = experiment: ATP level in model organism (nematode); type: in vivo; details: nematodes on NGM plate with 100 μM ATP prodrug, seventh day of cultivation
Procedure: The culture of the nematodes and the addition of the ATP prodrug to the nematodes were conducted under the same conditions as those in the survival analysis. On the seventh day of cultivation, five nematodes were collected for each condition, totaling twenty-five nematodes, and were transferred to a 24-well plate containing PBS, followed by conducting ultrasonic disruption while kept on ice for one minute. Then, the crushed liquid was collected into a microtube, and after centrifugation (15,000 rpm, 30 minutes, 4° C.), the supernatant was collected. Amount of the ATP in the supernatant was quantified using the ATP measurement kit (Dojin Chemical), and the amount of the ATP per nematode was calculated.

Human fibroblasts (NHDF) = experiment: Effect on intracellular ATP concentration using normal cells (Test Example 3); type: cell-based; details: 200 μM ATP prodrug, one day, ATP per cell
Procedure: Human fibroblasts (NHDF) (Takara Bio) were seeded at 5000 cells per well in DMEM low glucose, 10% FBS, and 1% penicillin/streptomycin, and, after 3 hours, a solution of the ATP prodrug prepared in Example 1 in DMSO at varying concentrations was added to the wells. One day later, the amount of DNA was measured using picogreen, and converted to cell count from a calibration curve separately created. The ATP level was quantified using the ATP measurement kit (Dojin Chemical), and the ATP level per cell was calculated.

nematodes [4] = experiment: Lifespan extension in model organism (nematode), survival analysis (Test Examples 8 and 10); type: in vivo; details: for average lifespan extended compared to the control: 1% DMSO
Procedure: The ATP prodrug prepared in Example 1, dissolved in DMSO, was added to the liquid Nematode Growth Medium (NGM) that had been sterilized and maintained at 60° C. at a final concentration of 100 μM, so as to prepare an ATP prodrug-containing NGM plate. At this time, the final concentration of DMSO in the NGM was adjusted to 1%. […] Onto the surface of the NGM plate used immediately before survival analysis, the bacterium Escherichia coli strain OP50 stirred in M9 buffer was applied as food for the nematodes.
Thirty-five nematodes were transferred to the NGM plate, after performing age synchronization. The nematodes were transferred to a new NGM plate every day from the first day of adulthood (the third day) to the seventh day, and every two days from the eighth day until the nematodes died. At the same time, the numbers of living nematodes and dead nematodes were recorded. Survival status of the nematodes was determined by whether they reacted when touched. Average lifespan was calculated from the results obtained, and the average lifespans were compared to determine the lifespan extension rate of the nematodes. This experiment was conducted four times to confirm the reproducibility (In cases of both with and without the addition of proATP, n=114).
ATP prodrug-neo dissolved in DMSO, was added to the liquid Nematode Growth Medium (NGM) that had been sterilized and maintained at 60° C. at a final concentration of 200 µM, so as to prepare an ATP prodrug-neo-containing NGM plate. At this time, the final concentration of DMSO in the NGM was adjusted to 1%. […]
Thirty-five nematodes were transferred to the NGM plate, after performing age synchronization. […] At the same time, the numbers of living nematodes and dead nematodes were recorded. Survival status of the nematode was determined by whether they reacted when touched. Average lifespan was calculated from the results obtained, and the average lifespans were compared to determine the lifespan extension rate of the nematodes. […]

[5] = test system: Human liver cancer cells (HepG2); experiment: Intracellular ATP level in liver cancer cells (Test Example 6); type: cell-based; details: HepG2 (cultured cells), varying concentrations, 24 hours
Procedure: Human liver cancer cells (HepG2) were seeded at 5000 cells per well in DMEM with 10% FBS and 1% penicillin/streptomycin, and after 3 hours, a solution of the ATP prodrug prepared in Example 1 in DMSO at varying concentrations was added to the wells. After 24 hours, the amount of DNA was measured using picogreen, and converted to cell count based on a calibration curve separately created. The ATP level was quantified using the ATP measurement kit (Dojin Chemical), resulting in the ATP level per cell.

normal pig liver cells = experiment: Intracellular ATP level in primary liver cells (Test Example 6); type: cell-based; details: varying concentrations, 24 hours
Procedure: In addition to this study, normal pig liver cells were seeded at 5000 cells per well in the liver cell differentiation environment (Hepatp-STIM, 1 μg/100 mL EGF, 1% penicillin/streptomycin), and after 3 hours, a solution of the ATP prodrug in DMSO at varying concentrations was added to the wells. The DNA amount was measured using picogreen 24 hours later. The ATP level was quantified using the ATP measurement kit (Dojin Chemical), and the ATP level was provided.

[6] = test system: Human Dermal Fibroblasts (HDF) derived from human; experiment: Intracellular ATP level in young and aged human dermal fibroblasts (Test Example 4 A); type: cell-based; details: 50 μM, 24 hours
Procedure: as §1

[7] = test system: AMP-activated protein kinase (AMPK); experiment: Intracellular ATP levels using AMPK inhibitor (Test Example 7); details: normal human dermal fibroblasts, ATP prodrug 100 μM, 24 hours
[8] = test system: MCF7 (human breast cancer cells); experiment: Effect of ATP prodrug on intracellular ATP concentration in MCF7 cells (Test Example 1); type: cell-based; details: MCF7, 100 μM ATP prodrug, after 3 days, ATP per cell
Procedure: MCF7 (human breast cancer cells) (RIKEN BRC) were seeded at 5000 cells per well in DMEM low glucose, 10% FBS, and 1% penicillin/streptomycin, and, after 3 hours, solutions of the ATP prodrug prepared in Example 1 in DMSO at varying concentrations were added to those wells. Three days later, the amounts of DNA were measured using picogreen, and converted to cell counts from a calibration curve separately created. The amount of ATP was quantified using the ATP measurement kit (Dojin Chemical), and the amount of ATP per cell was calculated.

[9] = test system: NHDF (normal human dermal fibroblasts); experiment: Cytotoxicity by LDH release (Test Example 5); type: cell-based; details: 24 hours
Procedure: NHDF (normal human dermal fibroblasts) were seeded at 5000 cells per well in DMEM/F12 with 10% FBS and 1% penicillin/streptomycin, and after 3 hours, a solution of the ATP prodrug prepared in Example 1 in DMSO at varying concentrations was added to the wells. After 24 hours, the release of the cytotoxicity marker, lactate dehydrogenase (LDH), was quantified using the LDH assay kit (Dojin Chemical), and the cytotoxicity was calculated.

[10] = test system: HDF75 (human dermal fibroblasts derived from a person); experiment: Effect of ATP prodrug-neo on intracellular ATP concentration (Test Example 9); type: cell-based; details: HDF75, varying concentrations, 24 hours, ATP per cell
Procedure: HDF75 (human dermal fibroblasts derived from a person) (Cell Applications, Inc.) were seeded at 5000 cells per well in the human dermal fibroblast growth medium, and after 3 hours, a solution of the ATP prodrug-neo prepared in Example 2 in DMSO at varying concentrations was added to the well. After 24 hours, the amount of DNA was measured using the picogreen and converted to cell count from a calibration curve separately created. The amount of ATP was quantified using the ATP measurement kit (Dojin Chemical), and the amount of ATP per cell was calculated.

## Nc1ncnc2c1ncn2[C@@H]1O[C@H](COP(=O)(O)OP(=O)(O)OP(=O)(O)O)[C@@H](O)[C@H]1O [ATP, adenosine triphosphate]
[1]
  half-life in blood: about 10 seconds

## Oc1ccc(C=Cc2cc(O)cc(O)c2)cc1 [Resveratrol]
Nematodes [2]
  Lifespan Extension Rate: 110%

## CN(C)C(=N)N=C(N)N [Metformin]
Nematodes [2]
  Lifespan Extension Rate: 127%

## NC(=O)c1cccnc1 [Nicotinamide]
Nematodes [2]
  Lifespan Extension Rate: 116%

## CCC(CC)COC(=O)[C@H](C)N[P@](=O)(OC[C@H]1O[C@@H](n2cnc3c(N)ncnc32)[C@H](O)[C@@H]1O)Oc1ccccc1 [ATP prodrug, (S)-2-Ethylbutyl 2-(((S)-(((2R,3S,4R,5R)-5-(6-amino-9H-purine-9-yl)-3,4-dihydroxy-tetrahydrofuran-2-yl)methoxy) (phenoxy)phosphoryl)amino)propanoate]
HDF derived from human
  cell number under oxidative stress: suppresses the decrease in cell number
MCF7 cells
  intracellular ATP level: increased
Nematodes [3]
  amount of ATP per nematode higher than control: approximately 23%
Human fibroblasts (NHDF)
  intracellular ATP level compared to the control (0 μM): 1.7 times
Nematodes [4]; nematode, the present invention
  Lifespan Extension Rate: 133%
Nematodes [4]; nematodes on NGM plate with 100 μM ATP prodrug
  average lifespan extended compared to the control: approximately 33%
[5]
  intracellular ATP levels: increased
Normal pig liver cells
  intracellular ATP levels: increased
[6]
  intracellular ATP levels: increased
[7]
  AMPK activation (suggested from inhibitor experiment): activates the AMPK
[8]
  intracellular ATP amount compared to the control level: approximately 2.5 times
[9]; 256 μM
  amount of LDH release: remains low
[9]; LDH assay
  cytotoxicity to cells: low cytotoxicity

## C[C@H](NP(=O)(N[C@@H](C)C(=O)OCC(C)(C)C)OC[C@H]1O[C@@H](n2cnc3c(N)ncnc32)C(O)C1O)C(=O)OCC(C)(C)C (stereo partly shown) [ATP prodrug-neo]
Nematodes [4]; nematodes on NGM plate with 200 µM ATP prodrug-neo
  average lifespan extended compared to the control: approximately 26%
[10]
  intracellular ATP levels: increased

From patent US20260115216A1, “NUCLEIC ACID PRECURSOR” (priority 2022, published 2026)
